According to patent publication US10729643B2, “Methods for administration and methods for treating cardiovascular diseases with resiniferatoxin” (priority 2013, dated 2020):
Like-named read-outs stand apart in the source and are kept apart here.

How the values were obtained:
[1] = test system: infarcted heart / CSAR activation; assay: Cardiac plasma extravasation (Evans Blue area); type: in vivo, rat; details: i.v.
Text: This example illustrates local anti-inflammatory effects of RTX in the infarcted heart. Myocardial ischemia causes the production and release of several metabolites including bradykinin, prostaglandins and protons that stimulate cardiac sympathetic afferent nerve endings leading to increases in BP, HR and sympathetic nerve activity. As cardiac TRPV1-expressing sympathetic afferents also subserve a “dual sensory-efferent” function and release pro-inflammatory neuropeptides, we hypothesized that plasma extravasation and cardiac neuroinflammation follows myocardial ischemia. […] Inflammation in the infarct area may be due to tissue death whereas in peri-infarct and remote areas may be due to cardiac sympathetic afferent mediated neuroinflammation. This may explain why RTX prevented cardiac inflammation in non-infarct areas to a greater extent than in the infarct area.

[2] = test system: cardiac sympathetic afferent input; details: anesthetized CHF rats; acute epicardial application; cited from earlier work
[3] = test system: cardiac sympathetic afferent input; details: anesthetized CHF dogs; acute epicardial application; cited from earlier work

Compound | cardiac plasma extravasation after MI (Evans Blue area) ([1]; Spantide II 0.3 mg/kg, 2 min prior to injection of Evans Blue) | plasma extravasation following CSAR activation by epicardial capsaicin or bradykinin ([1]; acute pretreatment with Spantide II, 0.3 mg/kg) | baseline MAP, HR and RSNA [2] | baseline MAP, HR and RSNA [3]
Spantide II | attenuated | largely be abolished | – | –
CCN(CC)CC(=O)Nc1c(C)cccc1C [lidocaine] | – | – | decreased | decreased
